Experimental data from ChEMBL document CHEMBL4265969, “Design, synthesis and biological evaluation of (2S,3R,4R,5S,6R)-5-fluoro-6-(hydroxymethyl)-2-aryltetrahydro-2H-pyran-3,4-diols as potent and orally active SGLT dual inhibitors” (Bioorg Med Chem Lett, 2018).
Calls of active or inactive are those of the source. The calls are words filed in the database; no cut-off is given here.

How the values were obtained:
[1] = Metabolic stability in human liver microsomes at 1 uM after 10 mins in presence of NADPH; type: ADME, microsome; conditions: read-out: Stability
[2] = Metabolic stability in mouse liver microsomes at 1 uM after 10 mins in presence of NADPH; type: ADME, microsome; conditions: read-out: Stability
[3] = Metabolic stability in rat liver microsomes at 1 uM after 10 mins in presence of NADPH; type: ADME, microsome; conditions: read-out: Stability
[4] = Half life in Sprague-Dawley rat at 2 mg/kg, iv; type: ADME, organism-based; conditions: in vivo
[5] = Clearance in Sprague-Dawley rat at 2 mg/kg, iv; type: ADME, organism-based; conditions: in vivo
[6] = Volume of distribution at steady state in Sprague-Dawley rat at 2 mg/kg, iv; type: ADME, organism-based; conditions: in vivo, read-out: Vdss
[7] = Half life in Sprague-Dawley rat at 10 mg/kg, po; type: ADME, organism-based; conditions: in vivo
[8] = Cmax in Sprague-Dawley rat at 10 mg/kg, po; type: ADME, organism-based; parameters: dose 10 mg/kg, route oral; conditions: in vivo
[9] = Tmax in Sprague-Dawley rat at 10 mg/kg, po; type: ADME, organism-based; conditions: in vivo
[10] = AUC (0 to infinity) in Sprague-Dawley rat at 10 mg/kg, po; type: ADME, organism-based; parameters: dose 10 mg/kg, route oral, time infinity; conditions: in vivo
[11] = Oral bioavailability in Sprague-Dawley rat at 10 mg/kg; type: ADME, organism-based; conditions: in vivo
[12] = Half life in cynomolgus monkey at 2 mg/kg, iv; type: ADME, organism-based, Macaca fascicularis; conditions: in vivo
[13] = Clearance in cynomolgus monkey at 2 mg/kg, iv; type: ADME, organism-based, Macaca fascicularis; conditions: in vivo
[14] = Volume of distribution at steady state in cynomolgus monkey at 2 mg/kg, iv; type: ADME, organism-based, Macaca fascicularis; conditions: in vivo, read-out: Vdss
[15] = Half life in cynomolgus monkey at 10 mg/kg, po; type: ADME, organism-based, Macaca fascicularis; conditions: in vivo
[16] = Cmax in cynomolgus monkey at 10 mg/kg, po; type: ADME, organism-based, Macaca fascicularis; parameters: dose 10 mg/kg, route oral; conditions: in vivo
[17] = Tmax in cynomolgus monkey at 10 mg/kg, po; type: ADME, organism-based, Macaca fascicularis; conditions: in vivo
[18] = AUC (0 to infinity) in cynomolgus monkey at 10 mg/kg, po; type: ADME, organism-based, Macaca fascicularis; parameters: dose 10 mg/kg, time infinity, route oral; conditions: in vivo
[19] = Oral bioavailability in cynomolgus monkey at 10 mg/kg; type: ADME, organism-based, Macaca fascicularis; conditions: in vivo
[20] = Half life in human hepatocytes at 1 uM; type: ADME, cell-based, Hepatocyte
[21] = Half life in Sprague-Dawley rat hepatocytes at 1 uM; type: ADME, cell-based, Hepatocyte
[22] = Half life in dog hepatocytes at 1 uM; type: ADME, cell-based, Canis lupus familiaris, Hepatocyte
[23] = Half life in monkey hepatocytes at 1 uM; type: ADME, cell-based, Macaca mulatta, Hepatocyte; conditions: rhesus monkey
[24] = biological target: T1, Sodium/glucose cotransporter 1 (Rattus norvegicus, UniProt P53790); assay: Inhibition of rat SGLT1 expressed in CHOK1 cells assessed as reduction in Na-dependent [14C]-AMG uptake preincubated for 10 mins followed by [14C]-AMG addition measured after 2 hrs by TopCount method; type: cell-based
T1 sequence (P53790 whole entry): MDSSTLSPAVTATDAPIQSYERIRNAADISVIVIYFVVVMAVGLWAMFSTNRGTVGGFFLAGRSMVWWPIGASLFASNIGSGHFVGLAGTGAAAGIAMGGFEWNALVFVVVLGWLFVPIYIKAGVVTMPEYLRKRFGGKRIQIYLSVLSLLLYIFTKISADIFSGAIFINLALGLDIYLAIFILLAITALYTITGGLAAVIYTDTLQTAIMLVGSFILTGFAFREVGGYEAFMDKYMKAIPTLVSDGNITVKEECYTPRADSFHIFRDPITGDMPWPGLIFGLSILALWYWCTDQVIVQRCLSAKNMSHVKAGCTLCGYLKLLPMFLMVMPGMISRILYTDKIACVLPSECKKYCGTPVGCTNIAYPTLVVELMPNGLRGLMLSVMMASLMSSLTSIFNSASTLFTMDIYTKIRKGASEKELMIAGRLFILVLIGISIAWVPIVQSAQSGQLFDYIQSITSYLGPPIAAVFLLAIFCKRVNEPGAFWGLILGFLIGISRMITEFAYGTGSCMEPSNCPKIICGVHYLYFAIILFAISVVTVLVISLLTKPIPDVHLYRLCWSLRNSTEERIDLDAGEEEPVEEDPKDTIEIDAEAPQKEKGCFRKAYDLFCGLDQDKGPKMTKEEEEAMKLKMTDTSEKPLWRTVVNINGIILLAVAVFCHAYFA

[25] = biological target: T2, Sodium/glucose cotransporter 2 (Rattus norvegicus, UniProt P53792); assay: Inhibition of rat SGLT2 expressed in CHOK1 cells assessed as reduction in Na-dependent [14C]-AMG uptake preincubated for 10 mins followed by [14C]-AMG addition measured after 2 hrs by TopCount method; type: cell-based
T2 sequence (P53792 whole entry): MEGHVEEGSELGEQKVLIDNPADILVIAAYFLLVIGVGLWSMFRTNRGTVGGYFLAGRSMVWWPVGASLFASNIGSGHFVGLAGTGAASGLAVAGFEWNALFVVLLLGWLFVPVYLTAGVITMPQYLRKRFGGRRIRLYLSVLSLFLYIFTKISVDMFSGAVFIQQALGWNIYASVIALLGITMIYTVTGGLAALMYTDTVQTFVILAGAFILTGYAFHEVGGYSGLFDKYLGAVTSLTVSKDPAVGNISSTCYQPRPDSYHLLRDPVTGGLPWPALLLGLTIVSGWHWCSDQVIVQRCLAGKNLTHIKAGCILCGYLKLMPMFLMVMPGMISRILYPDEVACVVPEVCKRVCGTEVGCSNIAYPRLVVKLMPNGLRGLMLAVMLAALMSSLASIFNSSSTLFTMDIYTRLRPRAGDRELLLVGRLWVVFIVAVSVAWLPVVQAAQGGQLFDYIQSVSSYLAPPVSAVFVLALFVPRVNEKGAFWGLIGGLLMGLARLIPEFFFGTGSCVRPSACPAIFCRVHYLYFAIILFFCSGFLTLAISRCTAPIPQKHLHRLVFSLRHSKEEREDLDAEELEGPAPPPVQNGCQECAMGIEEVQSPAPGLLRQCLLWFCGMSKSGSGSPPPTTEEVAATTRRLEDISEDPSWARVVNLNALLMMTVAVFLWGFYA

Rattus norvegicus [26] = assay: Antidiabetic activity in Sprague-Dawley rat assessed as decrease in postprandial blood glucose level administered orally 1 hr prior to glucose challenge measured up to 120 mins by OGTT; type: functional, organism-based
Rattus norvegicus [27] = assay: Antidiabetic activity in Sprague-Dawley rat assessed as decrease in postprandial blood glucose AUC at 1 mg/kg, po administered 1 hr prior to glucose challenge measured up to 120 mins by OGTT relative to control; type: functional; parameters: scale not given: the % may be the effect or the level left
Mus musculus [28] = assay: Anti-hyperglycemic effect in db/db mouse assessed as decrease in fed blood glucose AUC at 10 mg/kg, po measured up to 24 hrs relative to control; type: functional; parameters: scale not given: the % may be the effect or the level left
Mus musculus [29] = assay: In vivo inhibition of SGLT2 in db/db mouse assessed as increase in urine glucose excretion at 10 mg/kg, po after 24 hrs; type: functional, organism-based
Rattus norvegicus [30] = assay: Anti-hyperglycemic effect in ZDF rat assessed as decrease in fed blood glucose AUC at 10 mg/kg, po measured up to 24 hrs relative to control; type: functional; parameters: scale not given: the % may be the effect or the level left
[31] = biological target: Voltage-gated inwardly rectifying potassium channel KCNH2 (Homo sapiens, UniProt Q12809); assay: Inhibition of human ERG at 50 uM
Salmonella typhimurium = assay: Genotoxicity in Salmonella typhimurium TA98; type: toxicity, organism-based; conditions: salmonella enterica subsp. enterica serovar typhimurium

Chain of Voltage-gated inwardly rectifying potassium channel KCNH2 (Q12809 whole entry): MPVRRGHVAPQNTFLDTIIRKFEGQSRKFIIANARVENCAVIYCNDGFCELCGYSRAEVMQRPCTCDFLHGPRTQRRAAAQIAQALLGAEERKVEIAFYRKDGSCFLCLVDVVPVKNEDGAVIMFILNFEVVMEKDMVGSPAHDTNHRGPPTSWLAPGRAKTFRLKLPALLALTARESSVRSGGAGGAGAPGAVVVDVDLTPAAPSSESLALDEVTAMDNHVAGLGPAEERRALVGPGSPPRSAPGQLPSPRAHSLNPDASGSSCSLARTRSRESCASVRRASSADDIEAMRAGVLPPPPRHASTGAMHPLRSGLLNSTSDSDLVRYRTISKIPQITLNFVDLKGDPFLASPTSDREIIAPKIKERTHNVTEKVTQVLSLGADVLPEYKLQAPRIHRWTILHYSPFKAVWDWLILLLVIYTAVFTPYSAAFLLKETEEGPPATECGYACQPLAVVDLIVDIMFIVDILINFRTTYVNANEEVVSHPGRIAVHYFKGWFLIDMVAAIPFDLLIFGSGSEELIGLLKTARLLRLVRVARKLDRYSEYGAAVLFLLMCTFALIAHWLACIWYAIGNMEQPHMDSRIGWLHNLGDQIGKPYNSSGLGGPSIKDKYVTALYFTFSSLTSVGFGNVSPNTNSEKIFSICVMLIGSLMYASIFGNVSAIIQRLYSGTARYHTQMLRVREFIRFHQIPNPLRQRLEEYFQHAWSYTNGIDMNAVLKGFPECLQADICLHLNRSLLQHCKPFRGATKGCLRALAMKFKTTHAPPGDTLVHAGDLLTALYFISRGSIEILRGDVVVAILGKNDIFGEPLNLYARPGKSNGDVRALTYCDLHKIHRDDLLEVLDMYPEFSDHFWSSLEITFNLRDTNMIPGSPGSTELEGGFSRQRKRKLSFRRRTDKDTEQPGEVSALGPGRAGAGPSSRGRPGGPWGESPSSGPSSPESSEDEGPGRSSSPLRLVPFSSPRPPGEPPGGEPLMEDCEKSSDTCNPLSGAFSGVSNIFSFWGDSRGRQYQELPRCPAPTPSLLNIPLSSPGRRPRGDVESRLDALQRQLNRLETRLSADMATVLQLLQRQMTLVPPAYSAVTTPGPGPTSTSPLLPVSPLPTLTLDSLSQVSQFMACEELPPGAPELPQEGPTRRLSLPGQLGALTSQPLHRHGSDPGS

With `COc1c([C@@H]2O[C@H](CO)[C@@H](F)[C@H](O)[C@H]2O)cc(Cc2ccc3c(c2)OCCO3)c2c1CCO2` the remaining at 10 min, 1 µM [1] was 95%, the remaining at 10 min, 1 µM [2] was 82% and the remaining at 10 min, 1 µM [3] was 66%. The half-life [4] was 0.41 h, the clearance [5] was 50.9 mL/min/kg and the Vd [6] was 1.07 L/kg. The half-life [7] was 1.44 h, the Cmax [8] was 990 ng/mL and the Tmax [9] was 0.3 h. For the same compound, the AUC(0-inf) [10] was 1600 ng·h/mL, the bioavailability [11] was 48.2% and the half-life [12] was 7.9 h. It also gave a clearance [13] of 15.5 mL/min/kg, a Vd [14] of 3.05 L/kg and a half-life [15] of 5.6 h. For the same compound, the Cmax [16] was 1490 ng/mL, the Tmax [17] was 1.33 h and the AUC(0-inf) [18] was 6090 ng·h/mL. For the same compound, the bioavailability [19] was 56%, the half-life at 1 µM [20] was 5.4 h and the half-life at 1 µM [21] was 1.2 h. The half-life at 1 µM [22] was 8 h, the half-life at 1 µM [23] was 2.2 h and the IC50 [24] was 68 nM. For the same compound, the IC50 [25] was 16 nM, the Activity (Rattus norvegicus [26]) was “Dose-dependent effect” and the Activity (Rattus norvegicus [27]) was 32.4%. For the same compound, the Activity (Mus musculus [28]) was 57.4%, the inhibition (Mus musculus [29]) was “Active” and the Activity (Rattus norvegicus [30]) was 56.8%. The “inhibition (INH)” value [31] was “Not Active” and the Activity (Salmonella typhimurium) was “Non-Toxic”.
